Results taken from patent publication US11718631B2, “Sulphonamides and compositions thereof for treating conditions associated with NLRP activity” (Novartis AG, priority 2017, dated 2023).

Biological target: T1, NLRP3 (Homo sapiens, UniProt Q96P20)
T1 construct: IL-1β Production in PMA-Differentiated THP-1 Cells Stimulated with Gramicidin; host or cells: THP-1 cells, PMA-differentiated
Assay: IL-1β production in PMA-differentiated THP-1 cells stimulated with gramicidin (hTHP-1 assay)
Assay type: cell-based
Conditions: hTHP-1 assay containing 2% fetal bovine serum; average IC50, class symbols; read-out: NLRP3 Antagonist, human THP1 NLRP3, IL-1b, Normalized: GeoMean IC50
Experimental: IL-1β Production in PMA-Differentiated THP-1 Cells Stimulated with Gramicidin.
THP-1 cells were purchased from the American Type Culture Collection and sub-cultured according to instructions from the supplier. […] Prior to the experiment THP-1 were treated with PMA (Phorbol 12-myristate 13-acetate) (20 ng/ml) for 16-18 hours. On the day of the experiment the media was removed and adherent cells were detached with trypsin for 5 minutes. […] A vehicle only control was run concurrently with each experiment. Final DMSO concentration was 0.38%.
THP-1 cells were purchased from the American Type Culture Collection and sub-cultured according to instructions from the supplier. […] Prior to the experiment THP-1 were treated with PMA (Phorbol 12-myristate 13-acetate) (20 ng/ml) for 16-18 hours. Compounds were dissolved in dimethyl sulfoxide (DMSO) to generate a 30 mM stock. On the day of the experiment the media was removed and adherent cells were detached with trypsin for 5 minutes. […] Final DMSO concentration was at 0.37%. Cells were incubated with compounds for 1 hour and then stimulated with gramicidin (5 μM) (Enzo) for 2 hours. Plates were then centrifuged at 340 g for 5 min. Cell free supernatant (40 μL) was collected using a 96-channel PlateMaster (Gilson) and the production of IL-1p was evaluated by HTRF (cisbio).
IL-1p Production in PMA-Differentiated THP-1 Cells Stimulated with Gramicidin.
THP-1 cells were purchased from the American Type Culture Collection and sub-cultured according to instructions from the supplier. […] Prior to the experiment, compounds were dissolved in dimethyl sulfoxide (DMSO) to generate a 30 mM stock. […] DMSO was backfilled in the plate to achieve a final DMSO assay concentration of 0.37%. The plate was then sealed and stored at room temperature until required.
THP-1 cells were treated with PMA (Phorbol 12-myristate 13-acetate) (20 ng/ml) for 16-18 hours. On the day of the experiment the media was removed and adherent cells were detached with trypsin for 5 minutes. […] The plates were incubated for 18 h at 4° C. and read using the preset HTRF program (donor emission at 620 nm, acceptor emission at 668 nm) of the SpectraMax i3x spectrophotometer (Molecular Devices, software SoftMax 6).

T1 sequence (Q96P20 whole entry): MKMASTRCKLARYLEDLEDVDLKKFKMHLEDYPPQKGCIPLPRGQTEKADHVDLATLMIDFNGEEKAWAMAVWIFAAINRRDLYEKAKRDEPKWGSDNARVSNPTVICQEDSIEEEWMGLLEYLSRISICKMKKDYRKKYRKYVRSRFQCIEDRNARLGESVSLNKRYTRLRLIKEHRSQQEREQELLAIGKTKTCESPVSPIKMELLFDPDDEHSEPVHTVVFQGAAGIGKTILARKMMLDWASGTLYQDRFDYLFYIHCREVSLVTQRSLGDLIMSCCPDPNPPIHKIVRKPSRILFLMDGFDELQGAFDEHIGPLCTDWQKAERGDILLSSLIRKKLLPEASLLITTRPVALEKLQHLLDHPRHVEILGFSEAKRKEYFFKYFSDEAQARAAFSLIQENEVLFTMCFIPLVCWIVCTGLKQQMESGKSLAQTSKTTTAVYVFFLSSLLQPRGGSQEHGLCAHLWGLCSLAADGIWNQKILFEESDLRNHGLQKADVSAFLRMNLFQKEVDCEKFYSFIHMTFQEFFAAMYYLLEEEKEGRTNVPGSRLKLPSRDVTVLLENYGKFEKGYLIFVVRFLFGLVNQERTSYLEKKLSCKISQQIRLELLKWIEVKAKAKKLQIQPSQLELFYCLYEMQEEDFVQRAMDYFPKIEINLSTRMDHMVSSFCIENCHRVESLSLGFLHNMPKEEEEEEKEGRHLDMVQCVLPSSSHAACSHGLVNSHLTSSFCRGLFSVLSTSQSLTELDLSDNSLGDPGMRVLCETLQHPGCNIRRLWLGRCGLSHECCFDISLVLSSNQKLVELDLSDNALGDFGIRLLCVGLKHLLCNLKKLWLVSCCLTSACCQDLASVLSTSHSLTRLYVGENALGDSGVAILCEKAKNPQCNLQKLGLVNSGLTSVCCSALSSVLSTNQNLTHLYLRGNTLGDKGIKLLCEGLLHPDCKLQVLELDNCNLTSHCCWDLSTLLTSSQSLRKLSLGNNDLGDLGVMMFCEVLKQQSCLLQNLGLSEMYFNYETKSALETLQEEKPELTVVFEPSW

`CC(C)c1cc(C2CCc3ccccc3C2)cc(C(C)C)c1CC(=O)NS(=O)(=O)c1ccc(CN(C)C)cc1` (centres unmarked) [Compound 314, 2-[2,6-bis(propan-2-yl)-4-(1,2,3,4-tetrahydronaphthalen-2-yl)phenyl]-N-{4-[(dimethylamino)methyl]benzene-sulfonyl}acetamide] and `COc1ccccc1-c1cc(C(C)C)c(CC(=O)NS(=O)(=O)c2ccc(CN(C)C)cc2)c(C(C)C)c1` [Compound 121, N-[4-[(dimethylamino)methyl]phenyl] sulfonyl-2-[4-(2-methoxyphenyl)-2,6-di(propan-2-yl)phenyl] acetamide] fall in the same range of IC50: 1000 to 5000 nM for the first, 1000 to 5000 nM for the second.

`CC(C)c1cc(-c2cccc3cccnc23)cc(C(C)C)c1CC(=O)NS(=O)(=O)c1ccc(CN(C)C)cc1` [Compound 114] and `CC(C)c1cc(-c2ccc(Cl)cc2)cc(C(C)C)c1CC(=O)NS(=O)(=O)c1ccc(CN(C)C)cc1` [Compound 116, 2-[4-(4-chlorophenyl)-2,6-di(propan-2-yl)phenyl]-N-[4-[(dimethylamino)methyl]phenyl] sulfonylacetamide] fall in the same range of IC50: 1000 to 5000 nM for the first, 1000 to 5000 nM for the second.

Compared with `CC(C)c1cc(CCC2CCCC2)cc(C(C)C)c1CC(=O)NS(=O)(=O)c1ccc(CN(C)C)cc1` [Compound 325, 2-[4-(2-cyclopentylethyl)-2,6-bis(propan-2-yl)phenyl]-N-{4-[(dimethylamino)methyl]benzene-sulfonyl}acetamide], `CC(C)c1cc(C#CC2CCCC2)cc(C(C)C)c1CC(=O)NS(=O)(=O)c1ccc(CN(C)C)cc1` [Compound 370, 2-[4-(2-cyclopentylethynyl)-2,6-bis(propan-2-yl)phenyl]-N-{4-[(dimethylamino)methyl]benzene-sulfonyl}acetamide] is lower in IC50: 1000 to 5000 nM for the first, 40 to 200 nM for the second.

`Cc1cc(-c2cc(C(C)C)c(CC(=O)NS(=O)(=O)c3ccc(CN(C)C)cc3)c(C(C)C)c2)ccc1Cl` [Compound 146] and `CC(C)c1cc(-c2ccc(Cl)c(Cl)c2)cc(C(C)C)c1CC(=O)NS(=O)(=O)c1ccc(CN(C)C)cc1` [Compound 119, 2-[4-(3,4-dichlorophenyl)-2,6-di(propan-2-yl)phenyl]-N-[4-[(dimethylamino)methyl]phenyl] sulfonylacetamide] fall in the same range of IC50: 200 to 1000 nM for the first, 200 to 1000 nM for the second.

Compared with `Cc1cc(-c2cc(C(C)C)c(CC(=O)NS(=O)(=O)c3ccc(CN(C)C)cc3)c(C(C)C)c2)ccc1F` [Compound 101], `CC(C)c1cc(C#CC2CCOCC2)cc(C(C)C)c1CC(=O)NS(=O)(=O)c1ccc(CN(C)C)cc1` [Compound 313, N-{4-[(dimethylamino)methyl]benzene-sulfonyl}-2-{4-[2-(oxan-4-yl)ethynyl]-2,6-bis(propan-2-yl)phenyl}acetamide] is higher in IC50: 200 to 1000 nM for the first, 1000 to 5000 nM for the second.

Same assay, conditions: hTHP-1 assay containing 2% fetal bovine serum; average IC50, given as numeric bound; read-out: NLRP3 Antagonist, human THP1 NLRP3, IL-1b, Normalized: GeoMean IC50

`CC(C)c1cc(C(=O)c2ccccc2)cc(C(C)C)c1CC(=O)NS(=O)(=O)c1ccc(CN(C)C)cc1` [Compound 373, 2-[4-benzoyl-2,6-bis(propan-2-yl)phenyl]-N-{4-[(dimethylamino)methyl]benzenesulfonyl}acetamide] and `CC(C)c1cc(-c2cnn(C)c2)cc(C(C)C)c1CC(=O)NS(=O)(=O)c1ccc(CN(C)C)cc1` [Compound 106, N-[4-[(dimethylamino)methyl]phenyl] sulfonyl-2-[4-(1-methylpyrazol-4-yl)-2,6-di(propan-2-yl)phenyl] acetamide] cannot be ordered by IC50: over 30000 nM for the first, over 30000 nM for the second.

`CC(C)c1cc(C2=CCCN(C(=O)OC(C)(C)C)C2)cc(C(C)C)c1CC(=O)NS(=O)(=O)c1ccc(CN(C)C)cc1` [Compound 122, tert-butyl 5-[4-[2-[[4-[(dimethylamino)methyl]phenyl]sulfonylamino]-2-oxoethyl]-3,5-di(propan-2-yl)phenyl]-3,6-dihydro-2H-pyridine-1-carboxylate] and `CC(C)c1cc(C2CCOC2)cc(C(C)C)c1CC(=O)NS(=O)(=O)c1ccc(CN(C)C)cc1` (centres unmarked) [Compound 315, N-{4-[(dimethylamino)methyl]benzene-sulfonyl}-2-[4-(oxolan-3-yl)-2,6-bis(propan-2-yl)phenyl]acetamide] cannot be ordered by IC50: over 30000 nM for the first, over 30000 nM for the second.
